Laboratory results from patent publication US20240116985A1, “STAPLED PEPTIDES AND METHODS THEREOF” (priority 2020, published 2024).
Blank lines part the entries; values can stand above or below the compound they belong to.

What was measured:
[1] = molecular target: T1, full-length beta-Catenin (Uniprot ID P35222) (Homo sapiens, UniProt P35222); assay: Fluorescence polarization IC50 (beta-catenin / 5FAM-TCF4 10-53 competition); format: binding; conditions: fluorescence polarization; read-out: beta-Catenin FP IC50
T1 construct: 10 nM full-length beta-Catenin (Uniprot ID P35222)
T1 sequence (P35222 1-781): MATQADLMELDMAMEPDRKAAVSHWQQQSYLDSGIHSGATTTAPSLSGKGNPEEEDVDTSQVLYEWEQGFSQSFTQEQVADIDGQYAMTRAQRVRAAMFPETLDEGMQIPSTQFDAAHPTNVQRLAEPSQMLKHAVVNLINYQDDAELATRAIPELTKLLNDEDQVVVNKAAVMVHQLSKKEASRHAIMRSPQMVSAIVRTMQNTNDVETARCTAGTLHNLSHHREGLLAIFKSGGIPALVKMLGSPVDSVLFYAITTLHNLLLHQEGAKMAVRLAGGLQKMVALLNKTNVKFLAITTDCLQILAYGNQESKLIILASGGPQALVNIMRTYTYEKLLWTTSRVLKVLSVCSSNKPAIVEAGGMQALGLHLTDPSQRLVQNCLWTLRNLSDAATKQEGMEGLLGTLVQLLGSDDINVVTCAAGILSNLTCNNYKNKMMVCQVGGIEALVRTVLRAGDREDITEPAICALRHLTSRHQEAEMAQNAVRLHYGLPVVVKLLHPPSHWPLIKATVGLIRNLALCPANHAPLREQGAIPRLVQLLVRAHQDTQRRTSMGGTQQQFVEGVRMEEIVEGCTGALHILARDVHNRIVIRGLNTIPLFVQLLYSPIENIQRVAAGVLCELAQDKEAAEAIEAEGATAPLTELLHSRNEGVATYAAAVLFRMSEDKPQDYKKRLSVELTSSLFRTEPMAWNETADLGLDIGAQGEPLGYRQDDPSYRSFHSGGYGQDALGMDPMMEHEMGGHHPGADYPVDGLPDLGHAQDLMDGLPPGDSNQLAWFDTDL

[2] = molecular target: T2, beta-catenin/TCF4 engagement (Homo sapiens, UniProt P35222); assay: Nano-BRET target engagement assay (B-cat-Halo & TCF4-Luc in HEK293 cells); format: cell-based; conditions: absolute IC50; read-out: NanoBRET Abs IC50
T2 construct: expressed in transfected cells; host or cells: HEK293
T2 sequence (P35222 1-781): T1 sequence (P35222 1-781)

SMILES: CC(=O)N1CCC[C@]12CC=CCCCC1(CCCC=CCCCOC(=O)N3CC[C@@](C(=O)N[C@@H](Cc4ccccc4C(F)(F)F)C(=O)N[C@@H](Cc4csc5ccccc45)C(=O)N[C@@H](CC(=O)N4CCOCC4)C(N)=O)(C3)NC(=O)[C@H](CC(C)C)NC(=O)[C@H](Cc3ccccc3)NC(=O)[C@H](C)NC(=O)[C@H](C)NC(=O)[C@H](Cc3cccc(C(=O)O)c3)NC(=O)[C@H](CC(=O)O)NC1=O)NC(=O)[C@H](CC(C)(C)C)NC(=O)[C@H](CC(=O)O)NC2=O (stereo partly drawn) [I-1614, Ac-PL3-Asp-Npg-B5-Asp-3COOHF-Ala-Ala-Phe-Leu-PyrS2-2F3MeF-BztA-MorphAsn-NH2]
IC50 [1]: 15 nM
IC50 [2]: 6400 nM

SMILES: CCN(CC(=O)O)C[C@@H]1NC(=O)[C@H](CC(=O)O)NC(=O)C2(CCCC=CCCCOC(=O)N3CC[C@@](C(=O)N[C@@H](Cc4ccccc4Cl)C(=O)N[C@@H](Cc4csc5ccccc45)C(=O)N[C@@H](CCC(N)=O)C(N)=O)(C3)NC(=O)[C@H](CC(N)=O)NC(=O)[C@H](Cc3ccccc3)NC(=O)[C@H](C)NC(=O)[C@H](C)NC1=O)CCCC=CC[C@]1(CCCN1C(C)=O)C(=O)N[C@@H](CC(=O)O)C(=O)N[C@@H](CC(C)(C)C)C(=O)N2 (stereo partly drawn) [I-1622, Ac-PL3-Asp-Npg-B5-Asp-[Et]GA-Ala-Ala-Phe-Asn-PyrS2-2C1F-BztA-Gln-NH2]
IC50 [1]: 13 nM
IC50 [2]: > 20000 nM

SMILES: CC(=O)N1CCC[C@]12CC=CCCCC1(CCCC=CCCCCCC[C@@](C)(C(=O)N[C@@H](Cc3ccsc3)C(=O)N[C@@H](Cc3csc4ccccc34)C(=O)N[C@@H](CCC(N)=O)C(N)=O)NC(=O)[C@H](CC(N)=O)NC(=O)[C@H](Cc3ccccc3)NC(=O)[C@H](C)NC(=O)[C@H](C)NC(=O)[C@H](CN(CCC(F)(F)F)CC(=O)O)NC(=O)[C@H](CC(=O)O)NC1=O)NC(=O)[C@H](CC(C)(C)C)NC(=O)[C@H](CC(=O)O)NC2=O (stereo partly drawn) [I-1625, Ac-PL3-Asp-Npg-B5-Asp-[Tfp]GA-Ala-Ala-Phe-Asn-S8-3Thi-BztA-Gln-NH2]
IC50 [1]: 52.5 nM
IC50 [2]: 29300 nM

SMILES: CCN(CC(=O)O)C[C@@H]1NC(=O)[C@H](CC(=O)O)NC(=O)C2(CCCC=CCCCCCC[C@@](C)(C(=O)N[C@@H](Cc3ccsc3)C(=O)N[C@@H](Cc3csc4ccccc34)C(=O)N[C@@H](CCC(N)=O)C(N)=O)NC(=O)[C@H](CC(N)=O)NC(=O)[C@H](Cc3ccccc3)NC(=O)[C@H](C)NC(=O)[C@H](C)NC1=O)CCCC=CC[C@]1(CCCN1C(C)=O)C(=O)N[C@@H](CC(=O)O)C(=O)N[C@@H](CC(C)(C)C)C(=O)N2 (stereo partly drawn) [I-1627, Ac-PL3-Asp-Npg-B5-Asp-[Et]GA-Ala-Ala-Phe-Asn-S8-3Thi-BztA-Gln-NH2]
IC50 [1]: 57 nM
IC50 [2]: > 20000 nM

SMILES: CCN(CC(=O)O)C[C@@H]1NC(=O)[C@H](CC(=O)O)NC(=O)C2(CCCC=CCCCCCC[C@@](C)(C(=O)N[C@@H](Cc3ccsc3)C(=O)N[C@@H](Cc3csc4ccccc34)C(=O)N[C@@H](CCC(N)=O)C(N)=O)NC(=O)[C@H](CC(N)=O)NC(=O)[C@H](Cc3ccccc3)NC(=O)[C@H](C)NC(=O)[C@H](C)NC1=O)CCCC=CC[C@]1(CCCN1C(C)=O)C(=O)N[C@@H](CC(=O)O)C(=O)N[C@@H](CC(C)(C)C)C(=O)N2 (stereo partly drawn) [I-1628, Ac-PL3-Asp-Npg-B5-Asp-[Et]GA-Ala-Ala-Phe-Asn-S8-3Thi-BztA-Gln-NH2]
IC50 [1]: 18 nM
IC50 [2]: > 20000 nM

SMILES: CC(=O)N1CCC[C@]12CC=CCCCC1(CCCC=CCCCOC(=O)N3CC[C@@](C(=O)N[C@@H](Cc4ccsc4)C(=O)N[C@@H](Cc4csc5ccccc45)C(=O)N[C@@H](CCC(N)=O)C(N)=O)(C3)NC(=O)[C@H](CC(C)C)NC(=O)[C@H](Cc3ccccc3)NC(=O)[C@H](C)NC(=O)[C@H](C)NC(=O)[C@H](CN(CC(=O)O)Cc3ccccc3)NC(=O)[C@H](CC(=O)O)NC1=O)NC(=O)[C@H](CC(C)(C)C)NC(=O)[C@H](CC(=O)O)NC2=O (stereo partly drawn) [I-1630, Ac-PL3-Asp-Npg-B5-Asp-[Bn]GA-Ala-Ala-Phe-Leu-PyrS2-3Thi-BztA-Gln-NH2]
IC50 [1]: 11.5 nM
IC50 [2]: 5000 nM

SMILES: CC(=O)N1CCC[C@]12CC=CCCCC1(CCCC=CCCCOC(=O)N3CC[C@@](C(=O)N[C@@H](Cc4ccsc4)C(=O)N[C@@H](Cc4csc5ccccc45)C(=O)N[C@@H](CCC(N)=O)C(N)=O)(C3)NC(=O)[C@H](CC(C)C)NC(=O)[C@H](Cc3ccccc3)NC(=O)[C@H](C)NC(=O)[C@H](C)NC(=O)[C@H](CN(CCC(F)(F)F)CC(=O)O)NC(=O)[C@H](CC(=O)O)NC1=O)NC(=O)[C@H](CC(C)(C)C)NC(=O)[C@H](CC(=O)O)NC2=O (stereo partly drawn) [I-1633, Ac-PL3-Asp-Npg-B5-Asp-[Tfp]GA-Ala-Ala-Phe-Leu-PyrS2-3Thi-BztA-Gln-NH2]
IC50 [1]: 10 nM
IC50 [2]: 5200 nM

SMILES: CC(=O)N1CCC[C@]12CC=CCCCC1(CCCC=CCCCOC(=O)N3CC[C@@](C(=O)N[C@@H](Cc4ccsc4)C(=O)N[C@@H](Cc4csc5ccccc45)C(=O)N[C@@H](CCC(N)=O)C(N)=O)(C3)NC(=O)[C@H](CC(N)=O)NC(=O)[C@H](Cc3ccccc3)NC(=O)[C@H](C)NC(=O)[C@H](C)NC(=O)[C@H](CN(C)CC(=O)O)NC(=O)[C@H](CC(=O)O)NC1=O)NC(=O)[C@H](CC(C)(C)C)NC(=O)[C@H](CC(=O)O)NC2=O (stereo partly drawn) [I-1636, Ac-PL3-Asp-Npg-B5-Asp-[Me]GA-Ala-Ala-Phe-Asn-PyrS2-3Thi-BztA-Gln-NH2]
IC50 [1]: 17 nM
IC50 [2]: > 20000 nM

The remaining lines, values ahead:

IC50 [1]: 9 nM
IC50 [2]: 5200 nM
SMILES: CC(=O)N1CCC[C@]12CC=CCCCC1(CCCC=CCCCOC(=O)N3CC[C@@](C(=O)N[C@@H](Cc4ccccc4Cl)C(=O)N[C@@H](Cc4csc5ccccc45)C(=O)N[C@@H](CC(=O)N4CCOCC4)C(N)=O)(C3)NC(=O)[C@H]([C@@H](C)O)NC(=O)[C@H](Cc3ccccc3)NC(=O)[C@H](C)NC(=O)[C@H](C)NC(=O)[C@H](CN(CC(=O)O)CC(F)(F)F)NC(=O)[C@H](CC(=O)O)NC1=O)NC(=O)[C@H](CC(C)(C)C)NC(=O)[C@H](CC(=O)O)NC2=O (stereo partly drawn) [I-1613, Ac-PL3-Asp-Npg-B5-Asp-TfeGA-Ala-Ala-Phe-Thr-PyrS2-2C1F-BztA-MorphAsn-NH2]

IC50 [1]: 9 nM
IC50 [2]: 8000 nM
SMILES: CC(=O)N1CCC[C@]12CC=CCCCC1(CCCC=CCCCOC(=O)N3CC[C@@](C(=O)N[C@@H](Cc4ccccc4Cl)C(=O)N[C@@H](Cc4csc5ccccc45)C(=O)N[C@@H](CCCCNC(C)C)C(N)=O)(C3)NC(=O)[C@H]([C@@H](C)O)NC(=O)[C@H](Cc3ccccc3)NC(=O)[C@H](C)NC(=O)[C@H](C)NC(=O)[C@H](CN(CC(=O)O)CC(F)(F)F)NC(=O)[C@H](CC(=O)O)NC1=O)NC(=O)[C@H](CC(C)(C)C)NC(=O)[C@H](CC(=O)O)NC2=O (stereo partly drawn) [I-1615, Ac-PL3-Asp-Npg-B5-Asp-TfeGA-Ala-Ala-Phe-Thr-PyrS2-2C1F-BztA-iPrLys-NH2]

IC50 [1]: 10 nM
IC50 [2]: 30100 nM
SMILES: CC(=O)N1CCC[C@]12CC=CCCCC1(CCCC=CCCCOC(=O)N3CC[C@@](C(=O)N[C@@H](Cc4ccsc4)C(=O)N[C@@H](Cc4csc5ccccc45)C(=O)N[C@@H](CCC(N)=O)C(N)=O)(C3)NC(=O)[C@H](CC(C)C)NC(=O)[C@H](Cc3ccccc3)NC(=O)[C@H](C)NC(=O)[C@H](C)NC(=O)[C@H](CN(C)CC(=O)O)NC(=O)[C@H](CC(=O)O)NC1=O)NC(=O)[C@H](CC(C)(C)C)NC(=O)[C@H](CC(=O)O)NC2=O (stereo partly drawn) [I-1631, Ac-PL3-Asp-Npg-B5-Asp-[Me]GA-Ala-Ala-Phe-Leu-PyrS2-3Thi-BztA-Gln-NH2]

IC50 [1]: 9 nM
IC50 [2]: 16500 nM
SMILES: CC(=O)N1CCC[C@]12CC=CCCCC1(CCCC=CCCCOC(=O)N3CC[C@@](C(=O)N[C@@H](Cc4ccsc4)C(=O)N[C@@H](Cc4csc5ccccc45)C(=O)N[C@@H](CCC(N)=O)C(N)=O)(C3)NC(=O)[C@H](CC(N)=O)NC(=O)[C@H](Cc3ccccc3)NC(=O)[C@H](C)NC(=O)[C@H](C)NC(=O)[C@H](CN(CCCC(F)(F)F)CC(=O)O)NC(=O)[C@H](CC(=O)O)NC1=O)NC(=O)[C@H](CC(C)(C)C)NC(=O)[C@H](CC(=O)O)NC2=O (stereo partly drawn) [I-1634, Ac-PL3-Asp-Npg-B5-Asp-[Tfb]GA-Ala-Ala-Phe-Asn-PyrS2-3Thi-BztA-Gln-NH2]

IC50 [1]: 7 nM
IC50 [2]: 20600 nM
SMILES: CC(=O)N1CCC[C@]12CC=CCCCC1(CCCC=CCCCOC(=O)N3CC[C@@](C(=O)N[C@@H](Cc4ccsc4)C(=O)N[C@@H](Cc4csc5ccccc45)C(=O)N[C@@H](CCC(N)=O)C(N)=O)(C3)NC(=O)[C@H](CC(N)=O)NC(=O)[C@H](Cc3ccccc3)NC(=O)[C@H](C)NC(=O)[C@H](C)NC(=O)[C@H](CN(CC(=O)O)Cc3ccccc3)NC(=O)[C@H](CC(=O)O)NC1=O)NC(=O)[C@H](CC(C)(C)C)NC(=O)[C@H](CC(=O)O)NC2=O (stereo partly drawn) [I-1635, Ac-PL3-Asp-Npg-B5-Asp-[Bn]GA-Ala-Ala-Phe-Asn-PyrS2-3Thi-BztA-Gln-NH2]
